These results are taken from the supplement of paper PMC10627819.

Holding throughout (assay): Bliss interaction score (quartile over a dose matrix) (fitness difference); higher = more antagonism (negative = synergy)
In one assay the test system is S. pneumoniae D39V. The method, boiled down: (§1)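 Fitness is OD595 at stationary-phase entry relative to the plate's robust no-drug mean, capped at 1. Single-drug fitness was inferred from combinations. The Bliss score is observed minus product-expected fitness, summarised by quartiles over technical, biological and donor/recipient replicates.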
For the next assay, the system named is S. aureus Newman. The method, boiled down: as §1
The test system of the next assay is S. aureus DSM 20231. The method, boiled down: as §1
Another assay relates to B. subtilis 168. The method, boiled down: as §1
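Also: first quartile when negative (synergy) and third quartile when positive (antagonism).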

Regarding `CC[C@H]1OC(=O)[C@H](C)[C@@H](O[C@H]2C[C@@](C)(OC)[C@@H](O)[C@H](C)O2)[C@H](C)[C@@H](O[C@@H]2O[C@H](C)C[C@H](N(C)C)[C@H]2O)[C@](C)(O)C[C@@H](C)CN(C)[C@H](C)[C@@H](O)[C@]1(C)O` [Azithromycin] + CO[C@@]12[C@H](COC(N)=O)C3=C(C(=O)C(C)=C(N)C3=O)N1C[C@@H]1N[C@@H]12 [MitomycinC], the Bliss interaction score in the assay on S. pneumoniae D39V was -0.0779; with S. aureus Newman it was 0.0499; in the assay on S. aureus DSM 20231, -0.0652; with B. subtilis 168, 0.116.

As for `CC[C@H]1OC(=O)[C@H](C)[C@@H](O[C@H]2C[C@@](C)(OC)[C@@H](O)[C@H](C)O2)[C@H](C)[C@@H](O[C@@H]2O[C@H](C)C[C@H](N(C)C)[C@H]2O)[C@](C)(O)C[C@@H](C)CN(C)[C@H](C)[C@@H](O)[C@]1(C)O` [Azithromycin] + CO[C@H]1/C=C/O[C@@]2(C)Oc3c(C)c(O)c4c(O)c(c(/C=N/N5CCN(C)CC5)c(O)c4c3C2=O)NC(=O)/C(C)=C\C=C\[C@H](C)[C@H](O)[C@@H](C)[C@@H](O)[C@@H](C)[C@H](OC(C)=O)[C@@H]1C [Rifampicin], the Bliss interaction score with S. pneumoniae D39V is -0.0821; with S. aureus Newman, 0.0263; in the assay with S. aureus DSM 20231, 0.0531; with B. subtilis 168, 0.0851.

For the compound `CC[C@H]1OC(=O)[C@H](C)[C@@H](O[C@H]2C[C@@](C)(OC)[C@@H](O)[C@H](C)O2)[C@H](C)[C@@H](O[C@@H]2O[C@H](C)C[C@H](N(C)C)[C@H]2O)[C@](C)(O)C[C@@H](C)CN(C)[C@H](C)[C@@H](O)[C@]1(C)O` [Azithromycin] + C[C@@H](O)[C@H]1C(=O)N2C(C(=O)O)=C(SCCNC=N)C[C@H]12 [Imipenem], the Bliss interaction score was 0.0485 in the assay with S. pneumoniae D39V, -0.0196 in the assay with S. aureus Newman, -0.0324 in the assay on S. aureus DSM 20231 and 0.105 in the assay on B. subtilis 168.

Turning to `CC[C@H]1OC(=O)[C@H](C)[C@@H](O[C@H]2C[C@@](C)(OC)[C@@H](O)[C@H](C)O2)[C@H](C)[C@@H](O[C@@H]2O[C@H](C)C[C@H](N(C)C)[C@H]2O)[C@](C)(O)C[C@@H](C)CN(C)[C@H](C)[C@@H](O)[C@]1(C)O` [Azithromycin] + Clc1ccc(COC(Cn2ccnc2)c2ccc(Cl)cc2Cl)c(Cl)c1 [Miconazole], the Bliss interaction score in the assay on S. pneumoniae D39V was 0.0855; in the assay with S. aureus Newman, 0.0828; in the assay with S. aureus DSM 20231, -0.0368; in the assay on B. subtilis 168 it was 0.0679.

With `CC[C@H]1OC(=O)[C@H](C)[C@@H](O[C@H]2C[C@@](C)(OC)[C@@H](O)[C@H](C)O2)[C@H](C)[C@@H](O[C@@H]2O[C@H](C)C[C@H](N(C)C)[C@H]2O)[C@](C)(O)C[C@@H](C)CN(C)[C@H](C)[C@@H](O)[C@]1(C)O` [Azithromycin] + N[C@@H]1CONC1=O [CycloserineD], the Bliss interaction score was 0.135 in the assay on S. pneumoniae D39V, 0.0743 in the assay on S. aureus Newman, -0.103 in the assay with S. aureus DSM 20231 and 0.0718 in the assay with B. subtilis 168.

Turning to `O=C(O)[C@H]1/C(=C/CO)O[C@@H]2CC(=O)N21` [Clavulanic] + C/C(=C\C(=O)OCCCCCCCCC(=O)O)C[C@@H]1OC[C@H](C[C@@H]2O[C@H]2[C@@H](C)[C@H](C)O)[C@@H](O)[C@H]1O [Pseudomonic acid], the Bliss interaction score is -0.0849 in the assay with S. pneumoniae D39V and -0.0513 in the assay with B. subtilis 168.

As to `O=C(O)[C@H]1/C(=C/CO)O[C@@H]2CC(=O)N21` [Clavulanic] + CN[C@@H]1[C@H](O[C@H]2[C@H](O[C@H]3[C@H](O)[C@@H](O)[C@H](N=C(N)N)[C@@H](O)[C@@H]3N=C(N)N)O[C@@H](C)[C@]2(O)C=O)O[C@@H](CO)[C@H](O)[C@H]1O [Streptomycin], the results for the Bliss interaction score with S. pneumoniae D39V, with S. aureus Newman and in the assay on B. subtilis 168 were 0.0425, 0.218 and 0.0954, respectively.

In the case of `c1ccc2c(CC3=NCCN3)cccc2c1` [Naphazoline] + COc1cc(Cc2cnc(N)nc2N)cc(OC)c1OC [Trimethoprim], the Bliss interaction score with S. aureus DSM 20231 was found to be 0.236.

Turning to `CN1CCC[C@H]1c1cccnc1` [Nicotine] + CC[C@H]1OC(=O)[C@H](C)C(=O)[C@H](C)[C@@H](O[C@@H]2O[C@H](C)C[C@H](N(C)C)[C@H]2O)[C@](C)(OC)C[C@@H](C)C(=O)[C@H](C)[C@H]2N(CCCCn3cnc(-c4cccnc4)c3)C(=O)O[C@]12C [Telithromycin], the Bliss interaction score with S. aureus DSM 20231 was -0.342.

For `Cc1onc(-c2ccccc2)c1C(=O)N[C@@H]1C(=O)N2[C@@H]1SC(C)(C)[C@@H]2C(=O)O` [Oxacillin] + CCCSc1nc(N[C@@H]2C[C@H]2c2ccc(F)c(F)c2)c2nnn([C@@H]3C[C@H](OCCO)[C@@H](O)[C@H]3O)c2n1 [Ticagrelor], in the assay on S. aureus DSM 20231, the Bliss interaction score amounted to 0.171.

With `Cc1onc(-c2ccccc2)c1C(=O)N[C@@H]1C(=O)N2[C@@H]1SC(C)(C)[C@@H]2C(=O)O` [Oxacillin] + Cc1c(Cl)cccc1Nc1ccccc1C(=O)O [Tolfenamic], the Bliss interaction score in the assay on S. aureus DSM 20231 was determined as 0.138.

On to `CN(N=O)C(=O)N[C@@H](C=O)[C@@H](O)[C@H](O)[C@H](O)CO` [Streptozotocin] + CCCSc1nc(N[C@@H]2C[C@H]2c2ccc(F)c(F)c2)c2nnn([C@@H]3C[C@H](OCCO)[C@@H](O)[C@H]3O)c2n1 [Ticagrelor], for which the Bliss interaction score in the assay on S. aureus DSM 20231 stood at 0.221.

On to `Cc1cc(NS(=O)(=O)c2ccc(N)cc2)no1` [Sulfamethoxazol] + CCCSc1nc(N[C@@H]2C[C@H]2c2ccc(F)c(F)c2)c2nnn([C@@H]3C[C@H](OCCO)[C@@H](O)[C@H]3O)c2n1 [Ticagrelor], for which the Bliss interaction score in the assay on S. aureus DSM 20231 was 0.254.

With `CC[C@H]1OC(=O)[C@H](C)C(=O)[C@H](C)[C@@H](O[C@@H]2O[C@H](C)C[C@H](N(C)C)[C@H]2O)[C@](C)(OC)C[C@@H](C)C(=O)[C@H](C)[C@H]2N(CCCCn3cnc(-c4cccnc4)c3)C(=O)O[C@]12C` [Telithromycin] + Cc1ccc(C(C)C)c(O)c1 [Thymol], the Bliss interaction score in the assay with S. aureus DSM 20231 is -0.222.

As for `Cc1c(Cl)cccc1Nc1ccccc1C(=O)O` [Tolfenamic] + CN[C@H](CC(C)C)C(=O)N[C@H]1C(=O)N[C@@H](CC(N)=O)C(=O)N[C@H]2C(=O)N[C@H]3C(=O)N[C@H](C(=O)N[C@H](C(=O)O)c4cc(O)cc(O)c4-c4cc3ccc4O)[C@H](O)c3ccc(c(Cl)c3)Oc3cc2cc(c3O[C@@H]2O[C@H](CO)[C@@H](O)[C@H](O)[C@H]2O[C@H]2C[C@](C)(N)[C@H](O)[C@H](C)O2)Oc2ccc(cc2Cl)[C@H]1O [Vancomycin], the Bliss interaction score in the assay with S. aureus DSM 20231 was 0.124.

As to `Cc1c(Cl)cccc1Nc1ccccc1C(=O)O` [Tolfenamic] + COc1cc(Cc2cnc(N)nc2N)cc(OC)c1OC [Trimethoprim], the Bliss interaction score in the assay with S. aureus DSM 20231 is -0.185.
